Results as given in ChEMBL document CHEMBL5550099, “Synthesis and biological activity of 11-Oxygenated and heterocyclic estrone analogs in pancreatic cancer monolayers and 3D spheroids” (Bioorg Med Chem, 2024).
Calls of active or inactive are those of the source. The calls are words filed in the database; no cut-off is given here.

Columns and labels:
ASPC1 = experiment: Cytotoxicity against human ASPC1 cells incubated for 48 hrs by MTT assay; format: functional, cell-based; details: ASPC1, 48 h
PANC-1 [1] = experiment: Cytotoxicity against human PANC-1 cells incubated for 48 hrs by MTT assay; format: functional, cell-based; details: PANC-1, 48 h
BXPC-3 = experiment: Cytotoxicity against human BXPC-3 cells incubated for 48 hrs by MTT assay; format: functional, cell-based; details: BXPC-3, 48 h
PANC-1 [2] = experiment: Cytotoxicity against human PANC-1 cells cultured as 3D spheroids incubated for 48 hrs by Cell-titer glo luminescence assay; format: functional, cell-based; details: PANC-1, 48 h
PANC-1 [3] = experiment: Cytotoxicity against human PANC-1 cells co-cultured with human pancreatic stellate cells incubated for 48 hrs by Cell-titer glo luminescence assay; format: functional, cell-based; details: PANC-1, 48 h
PANC-1 [4] = experiment: Induction of apoptosis in human PANC-1 cells cultured as 3D spheroids assessed as fold increase in caspase-3/7 activity at 0.1 uM incubated for 48 hrs by Glo-max luminescence assay; format: functional
PANC-1 [5] = experiment: Induction of apoptosis in human PANC-1 cells cultured as 3D spheroids assessed as decrease in caspase-3/7 activity by measuring reduction in cell number at 1 to 10 uM incubated for 48 hrs by Glo-max luminescence assay; format: functional, cell-based; details: dose 1-10 µM
PANC-1 [6] = experiment: Induction of cell cycle arrest in human PANC-1 cells assessed as accumulation of cells at G2 phase at IC50 measured after 72 hrs by propidium iodide/RNase 141 staining based flow cytometry; format: functional
PANC-1 [7] = experiment: Cytotoxicity against human PANC-1 cells co-cultured with human pancreatic stellate cells incubated for 48 hrs by MTT assay; format: functional, cell-based
PANC-1 [8] = experiment: Induction of apoptosis in human PANC-1 cells co-cultured with human pancreatic stellate cells assessed as fold increase in caspase-3/7 activity at 0.1 uM incubated for 48 hrs by Glo-max luminescence assay; format: functional
PANC-1 [9] = experiment: Induction of apoptosis in human PANC-1 cells co-cultured with human pancreatic stellate cells assessed as decrease in caspase-3/7 activity by measuring reduction in cell number at 1 to 10 uM incubated for 48 hrs by Glo-max luminescence assay; format: functional, cell-based; details: dose 1-10 µM
PANC-1 [10] = experiment: Induction of cell cycle arrest in human PANC-1 cells assessed as accumulation of cells at G1 phase at IC50 measured after 72 hrs by propidium iodide/RNase 141 staining based flow cytometry; format: functional
PANC-1 [11] = experiment: Cytotoxicity against human PANC-1 cells cultured as 3D spheroids assessed as inhibition of spheroid growth rate at 10 uM measured every two days by microscopic analysis; format: functional, cell-based
PANC-1 [12] = experiment: Cytotoxicity against human PANC-1 cells co-cultured with human pancreatic stellate cells assessed as inhibition of spheroid growth rate at 10 uM measured every two days by microscopic analysis; format: functional, cell-based
PANC-1 [13] = experiment: Induction of apoptosis in human PANC-1 cells cultured as 3D spheroids assessed as increase in caspase-3/7 activity upto 50 uM incubated for 48 hrs by Glo-max luminescence assay relative to control; format: functional; details: up to 50 µM
PANC-1 [14] = experiment: Cytotoxicity against human PANC-1 cells cultured as 3D spheroids assessed as reduction in spheroid growth rate at 0.1 to 100 uM measured every two days by microscopic analysis; format: functional, cell-based; details: dose 0.1-100 µM
PANC-1 [15] = experiment: Cytotoxicity against human PANC-1 cells co-cultured with human pancreatic stellate cells assessed as reduction in spheroid growth rate at 0.1 to 100 uM measured every two days by microscopic analysis; format: functional, cell-based; details: dose 0.1-100 µM
PANC-1 [16] = experiment: Induction of apoptosis in human PANC-1 cells co-cultured with human pancreatic stellate cells assessed as increase in caspase-3/7 activity upto 50 uM incubated for 48 hrs by Glo-max luminescence assay relative to control; format: functional; details: up to 50 µM

For `C[C@](O)(C(=O)/C=C/c1cccs1)C1CC[C@H]2[C@@H]3CCc4cc(O)ccc4[C@H]3CC[C@]12C` (some centres undefined), the IC50 (ASPC1) was > 50 µM and the IC50 (PANC-1 [1]) was 41.7 µM.
With `COc1ccc2c(c1)CC[C@@H]1[C@@H]2CC[C@]2(C)C([C@@](C)(O)C(=O)/C=C/c3ccc(Cl)o3)CC[C@@H]12` (some centres undefined) the IC50 (ASPC1) was 40.2 µM and the IC50 (PANC-1 [1]) was > 50 µM.
`COc1ccc2c(c1)CC[C@@H]1[C@@H]2[C@H](O)C[C@]2(C)C([C@@](C)(O)C(=O)/C=C/C(C)(C)O)CC[C@@H]12` (some centres undefined) was tested, and the IC50 (ASPC1) was 17.3 µM, the IC50 (PANC-1 [1]) was 11.8 µM and the IC50 (BXPC-3) was 10.1 µM. For the same compound, the IC50 (PANC-1 [2]) was 37.5 µM, the IC50 (PANC-1 [3]) was 39.5 µM and the “fold change (FC)” value (PANC-1 [4]) was 1.5. The Activity (PANC-1 [5]) was “Active”, the Activity (PANC-1 [6]) was “Active” and the Activity (PANC-1 [7]) was “Active”. For the same compound, the “fold change (FC)” value (PANC-1 [8]) was 1.5 and the Activity (PANC-1 [9]) was “Active”.
For `Cc1ccc(/C=C/C(=O)[C@](C)(O)C2CC[C@H]3[C@@H]4CCc5cc(O)ccc5[C@H]4CC[C@]23C)s1` (some centres undefined), the IC50 (ASPC1) was 46.5 µM and the IC50 (PANC-1 [1]) was > 50 µM.
In the case of `C[C@](O)(C(=O)/C=C/c1ccc(Cl)s1)C1CC[C@H]2[C@@H]3CCc4cc(O)ccc4[C@H]3CC[C@]12C` (some centres undefined), the IC50 (ASPC1) is reported as > 50 µM and the IC50 (PANC-1 [1]) is reported as 39.8 µM.
With `COc1ccc2c(c1)CC[C@@H]1[C@@H]2CC[C@]2(C)C([C@@](C)(O)C(=O)/C=C/c3ccc(C)s3)CC[C@@H]12` (some centres undefined) the IC50 (ASPC1) was > 50 µM and the IC50 (PANC-1 [1]) was > 50 µM.
With `C[C@](O)(C(=O)/C=C/c1ccc(Cl)s1)C1CC[C@H]2[C@@H]3CCc4cc(OS(N)(=O)=O)ccc4[C@H]3CC[C@]12C` (some centres undefined) the IC50 (ASPC1) was > 50 µM and the IC50 (PANC-1 [1]) was > 50 µM.
Compound `COc1ccc2c(c1)CC[C@@H]1[C@@H]2C(=O)C[C@]2(C)C([C@@](C)(O)C(=O)/C=C/c3ccc(C(F)(F)F)cc3)CC[C@@H]12` (some centres undefined) has an IC50 (ASPC1) of 4.17 µM, an IC50 (PANC-1 [1]) of 5.28 µM and an IC50 (BXPC-3) of 5.7 µM. For the same compound, the IC50 (PANC-1 [2]) was 21 µM, the IC50 (PANC-1 [3]) was 24.3 µM and the “fold change (FC)” value (PANC-1 [4]) was 1.5. The Activity (PANC-1 [5]) was “Active”, the Activity (PANC-1 [10]) was “Active” and the Activity (PANC-1 [11]) was “Active”. The Activity (PANC-1 [12]) was “Active”, the Activity (PANC-1 [7]) was “Active” and the “fold change (FC)” value (PANC-1 [8]) was 1.5. The Activity (PANC-1 [9]) was “Active”.
With `C[C@](O)(C(=O)/C=C/c1ccc(Cl)o1)C1CC[C@H]2[C@@H]3CCc4cc(O)ccc4[C@H]3CC[C@]12C` (some centres undefined) the IC50 (ASPC1) was > 50 µM and the IC50 (PANC-1 [1]) was 10.2 µM.
In the case of `Nc1ccn([C@@H]2O[C@H](CO)[C@@H](O)C2(F)F)c(=O)n1` [GEMCITABINE], the IC50 (ASPC1) is reported as > 50 µM, the IC50 (PANC-1 [1]) is reported as > 50 µM and the IC50 (BXPC-3) is reported as > 50 µM. For the same compound, the Activity (PANC-1 [13]) was 20%, the Activity (PANC-1 [14]) was “Active” and the Activity (PANC-1 [15]) was “Active”. For the same compound, the Activity (PANC-1 [16]) was 20%.
In the case of `Cc1ccc(/C=C/C(=O)[C@](C)(O)C2CC[C@H]3[C@@H]4CCc5cc(OS(N)(=O)=O)ccc5[C@H]4CC[C@]23C)s1` (some centres undefined), the IC50 (ASPC1) is reported as 38.4 µM and the IC50 (PANC-1 [1]) is reported as > 50 µM.
With `COc1ccc2c(c1)CC[C@@H]1[C@@H]2CC[C@]2(C)C([C@@](C)(O)C(=O)/C=C/c3cccs3)CC[C@@H]12` (some centres undefined) the IC50 (ASPC1) was > 50 µM and the IC50 (PANC-1 [1]) was 38.2 µM.
In the case of `COc1ccc2c(c1)CC[C@@H]1[C@@H]2CC[C@]2(C)C([C@@](C)(O)C(=O)/C=C/c3ccc(Cl)s3)CC[C@@H]12` (some centres undefined), the IC50 (ASPC1) is reported as > 50 µM and the IC50 (PANC-1 [1]) is reported as 33.4 µM.
With `C[C@](O)(C(=O)/C=C/c1cccs1)C1CC[C@H]2[C@@H]3CCc4cc(OS(N)(=O)=O)ccc4[C@H]3CC[C@]12C` (some centres undefined) the IC50 (ASPC1) was 48.4 µM and the IC50 (PANC-1 [1]) was 53 µM.
Compound `COc1ccc2c(c1)CC[C@@H]1[C@@H]2[C@H](O)C[C@]2(C)C([C@@](C)(O)C(=O)/C=C/c3ccc(C(F)(F)F)cc3)CC[C@@H]12` (some centres undefined) has an IC50 (ASPC1) of 11.5 µM, an IC50 (PANC-1 [1]) of 6.52 µM and an IC50 (BXPC-3) of 6.07 µM. The IC50 (PANC-1 [2]) was 37.5 µM, the IC50 (PANC-1 [3]) was > 50 µM and the “fold change (FC)” value (PANC-1 [4]) was 1.5. For the same compound, the Activity (PANC-1 [5]) was “Active”, the Activity (PANC-1 [6]) was “Active” and the Activity (PANC-1 [7]) was “Active”. For the same compound, the “fold change (FC)” value (PANC-1 [8]) was 1.5 and the Activity (PANC-1 [9]) was “Active”.
